Data on one molecule can be found in article PMC9946977, “Identification of linderalactone as a natural inhibitor of SHP2 to ameliorate CCl4-induced liver fibrosis” (Frontiers in Pharmacology, 2023).

The assay addresses T1, SHP2 PTP domain (Homo sapiens, UniProt Q06124).
T1 construct: Human SHP2 PTP domain (A237–I529) expression constructs; His-tag; made in house; host or cells: E. coli BL21 (DE3)
T1 sequence (Q06124 237-529): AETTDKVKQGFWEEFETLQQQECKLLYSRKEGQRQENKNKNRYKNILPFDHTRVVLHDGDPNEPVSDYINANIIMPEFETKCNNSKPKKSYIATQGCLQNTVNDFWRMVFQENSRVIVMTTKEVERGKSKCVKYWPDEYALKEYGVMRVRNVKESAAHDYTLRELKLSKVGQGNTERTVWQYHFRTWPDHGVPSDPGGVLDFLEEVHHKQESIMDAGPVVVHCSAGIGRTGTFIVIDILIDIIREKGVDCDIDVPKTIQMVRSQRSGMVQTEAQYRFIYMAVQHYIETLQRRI
In words: SHP2 inhibition assay (DiFMUP) with SHP2-PTP; HTS and dose-response. The assay is classed as biochemical. Conditions: 0.5 nM SHP2-PTP, DiFMUP substrate, 30 min co-incubation at 20°C; read-out: IC50 against the SHP2 PTP domain. As to the method:
Human SHP2 PTP domain (A237–I529) expression constructs were engineered by cloning PTPN11 (NP_002825.3) into the pET30 plasmid with a His-tag to support further protein purification. The K366A/Q510A double mutation was introduced into the wild-type template using a site-directed mutagenesis kit (E0554S; New England Biolabs). The expression constructs were sequenced and transformed into BL21 (DE3)-competent cells. E. coli cells were grown at 37°C in an LB culture medium in the presence of […] kanamycin until the OD600 reached 1.0. The medium was then cooled to 18°C and 1 mM isopropyl ß-D-1-thiogalactopyranoside (IPTG) was added to induce protein expression overnight.
A surrogate phosphatase substrate, 6,8-difluoro-4-methylumbelliferyl phosphate (DiFMUP, Thermo Fisher, #D22065), was used to monitor the catalytic activity of SHP2 in a prompt fluorescence assay format. Specifically, the DiFMUP phosphatase assay was performed at 20°C in a 384-well Griener CELLSTAR black polystyrene plate in the buffer condition of 60 mM HEPES (pH7.5), 75 mM NaCl, 75 mM KCl, 1 mM EDTA, 0.05% Tween-20, 5 mM dithiothreitol (DTT). The final reaction volume was 25 μL. NP compound libraries were obtained from TargetMol at a stock concentration of 10 mM, dissolved in DMSO. The purity of the active compound LIN used in this study is 96.27% as tested by HPLC analysis. The HPLC traces is shown in Supporting Information. We co-incubated 0.5 nM of SHP2-PTP enzyme with tested NPs for 30 min at 20°C, followed by the addition of DiFMUP into the reaction. After 30 min, 5 μL of bpV(phen) solution was added to quench the dephosphorylation reaction. The signals were read on a plate reader (SpectraMax iD5, Molecular Devices). The excitation and emission wavelengths were 340 and 450 nm, respectively. The inhibitor dose-response curves were evaluated using a normalised IC50 regression curve fitting with control-based normalisation. For the full-length SHP2 inhibition assay, 0.5 μM of a bisphosphorylated pIRS-1 peptide (ChinaPeptides Ltd. Shanghai) was added for partial SHP2 activation. […]

A word on the IC50: it is the point on the concentration scale where inhibition reaches its midpoint. As to `C=C1C2CC2[C@@]2(C)Cc3occ(C)c3C(O)C12` (stereo partly shown) [Lindenenol, lindenenol], the IC50 stood at 12.6 ± 4.2 µM.
